Columns and labels:
human TLR7 = molecular target: T1, human TLR7 (Homo sapiens, UniProt Q9NYK1); experiment: human TLR7-specific reporter gene assay; assay type: cell-based
T1 sequence (Q9NYK1 27-1049): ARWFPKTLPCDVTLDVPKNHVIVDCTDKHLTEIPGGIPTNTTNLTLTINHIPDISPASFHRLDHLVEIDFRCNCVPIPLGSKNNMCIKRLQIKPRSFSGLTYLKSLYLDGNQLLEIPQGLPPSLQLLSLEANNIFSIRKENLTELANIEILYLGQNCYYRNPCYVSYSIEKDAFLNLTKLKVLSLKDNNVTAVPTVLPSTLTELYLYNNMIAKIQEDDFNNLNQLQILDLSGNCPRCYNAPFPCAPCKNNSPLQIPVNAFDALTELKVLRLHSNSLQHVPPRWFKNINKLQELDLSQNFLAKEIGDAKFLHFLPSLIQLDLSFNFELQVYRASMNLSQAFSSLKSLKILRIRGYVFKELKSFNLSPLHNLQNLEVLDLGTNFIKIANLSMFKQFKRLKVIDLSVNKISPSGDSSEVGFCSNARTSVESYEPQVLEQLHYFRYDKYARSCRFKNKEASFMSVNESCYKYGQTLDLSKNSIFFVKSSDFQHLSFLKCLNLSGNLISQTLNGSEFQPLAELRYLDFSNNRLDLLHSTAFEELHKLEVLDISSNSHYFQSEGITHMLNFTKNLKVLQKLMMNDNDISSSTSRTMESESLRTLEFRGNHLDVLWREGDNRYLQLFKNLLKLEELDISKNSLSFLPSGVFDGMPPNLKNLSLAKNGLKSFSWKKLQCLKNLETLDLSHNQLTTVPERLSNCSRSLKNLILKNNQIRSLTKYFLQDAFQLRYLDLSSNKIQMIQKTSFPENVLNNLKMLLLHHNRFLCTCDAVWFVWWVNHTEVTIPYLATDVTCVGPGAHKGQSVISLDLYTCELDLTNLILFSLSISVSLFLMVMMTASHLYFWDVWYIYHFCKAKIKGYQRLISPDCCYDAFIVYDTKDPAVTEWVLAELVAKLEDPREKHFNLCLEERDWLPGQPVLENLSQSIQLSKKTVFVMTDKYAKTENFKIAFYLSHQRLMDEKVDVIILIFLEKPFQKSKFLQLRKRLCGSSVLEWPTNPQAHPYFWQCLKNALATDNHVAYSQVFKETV

human PBMCs = experiment: Induction of IFN-α, IFN-γ, IL-12 and IL-18 in human PBMCs, ELISA; assay type: cell-based
aqueous solubility = assay type: physicochemical

| SMILES | TLR7-agonistic activity (in words) (human TLR7) | Th1-biased cytokine induction (IFN-α, IFN-γ, IL-12, IL-18) (human PBMCs) | aqueous solubility (aqueous solubility) |
| --- | --- | --- | --- |
| CCCCc1nc2c(N)nc3ccccc3c2n1Cc1ccc(CNC(=O)CCN2C(=O)CC(SC[C@@H](NC(=O)CC[C@@H](N)C(=O)O)C(=O)NCC(=O)O)C2=O)cc1 (stereo partly shown) [6a] | completely inactive | – | – |
| CCCCc1nc2c(N)nc3ccccc3c2n1Cc1ccc(CNC(=S)NCC(=O)NCC(=O)NCC(=O)OC)cc1 [compound 3] | active | – | – |
| CCCCc1nc2c(N)nc3ccccc3c2n1Cc1ccc(CN)cc1 [compound 1] | – | prominent Th1 bias | excellent |
